Assay results taken from US20100317639A1 (priority 2005, published 2010).

Assays:
[1] = system: X-adrenoleukodystrophic fibroblasts; conditions: patients suffering from adrenoleucodistrophy; literature; cited from earlier work
[2] = system: acyl-coenzyme A:cholesterol acetyltransferase enzyme (ACAT); test: Effect of the ester on ACAT activity in rat hepatic microsomes (14C-linoleic acid incorporation into cholesterol esters, TLC, beta counter); format: biochemical; conditions: rat liver microsomes 200 micrograms, mean+/-standard error
Procedure: For the experiments of effectiveness a test to evaluate the effect of the ester formed from linoleic acid obtained from example 1 and example 4 on acyl-coenzyme A:cholesterol acetyltransferase enzyme (ACAT) activity was performed. The experiment was performed in vitro according to a classic pharmacology method, used for the evaluation of the activity of this enzyme, reported in the method book: Drug discovery and evaluation, Pharmacological assay, Ed. H. G: Vogel (Springer), p. 1119, 2002.
Hepatic microsomes were prepared as well as in the example 1.
Eight tubes were prepared, in all tubes linoleic acid-^14C (10 microM) was incubated in presence of 200 micrograms of microsomes. Each tube contained phosphate buffer 0.04 M KH2PO4, pH 7.4 with 0.05 M KCl, 0.03 EDTA, 0.3 M sucrose, 1 mM α-cyclodextrin, final volume 750 microliters. The eight tubes have been incubated at 37° C. for 10 min.
The esters of example 1 and 4 were pooled together and three sample solutions of concentration 12.5, 25 and 50 micromolar respectively were prepared in duplicate, therefore obtaining six sample solutions.
The six sample solutions were then transferred respectively in six of eight tubes prepared as above at the end of the 10 minutes (each concentration of ester separately incubated per tube). The seventh tube was added with ^14C-linoleic acid alone (without esters) and the eighth with ethanol alone (carrier in which the esters were resuspended) to evaluate a possible effect of ethanol on the enzymatic activity. All the eight tubes have been incubated at 37° C. for four minutes.
At the end of the time the reaction was stopped by adding chloroform:methanol 2:1. The samples of the eight tubes were extracted according to the Folch's method (1957). The lower phase of each sample containing the lipid extracts was separated and dried, then taken-up again in 1 ml of chloroform:methanol 2:1. The extract of each sample was dried and subjected to TLC. […]
Spots were highlighted through iodine vapour. The bands which correspond to the standard for each TLC were taken off from the plate and counted in beta counter. […]

[3] = literature, cited from earlier work
[4] = administered in form of triglyceride; literature; cited from earlier work
ACAT = conditions: literature statement; cited from earlier work

In the case of `C[C@]12CCC(=O)C[C@@H]1CC[C@@H]1[C@@H]2CC[C@]2(C)[C@@H](O)CC[C@@H]12` [dihydrotestosterone, 5α-androstan-17β-ol-3-one], the beta-oxidation [1] is listed as “increase beta-oxidation” and the cholesterol esterification processes [1] is listed as “reduce cholesterol esterification processes”.
For “monoester of the androgen 5α-androstan-3α,17β-diol (3α-diol) and of the linoleic acid (LA) (cis,cis-9,12-octadecadienoic acid) (18:2, n-6) [Example 1]”, the “inhibition percentage with reference to the untreated sample” value (shortened to “inhibition percentage with reference”) ([2]; ester 12.5 microM) was 2.5, the “inhibition percentage with reference” value ([2]; ester 25 microM) was 44% and the “inhibition percentage with reference” value ([2]; ester 50 microM) was 28%.
For `CCCCCCCC/C=C\CCCCCCCCCCCC(=O)O` [erucic acid, erucic acid (C22:1)], the effectiveness in vivo ([3]; administered in form of triglyceride) is listed as “little effective”, the “crossing of the hematoencephalic barrier” value ([3]; in vivo) is listed as “failed to cross the hematoencephalic barrier” and the effectiveness in vitro [4] is listed as “only partially effective”.
For `CCCCCCCN(Cc1ccc(CC(C)(C)C)cc1)C(=O)Nc1ccc(F)cc1F` [CL 277,082, N-(2,4-difluorophenyl)-N-(4-neopentylbenzyl)-N-(n-heptyl)urea], the “inhibiting the ACAT activity” value (ACAT) is given as “very strong and specific”.
In the case of `C[C@]12CC[C@@H](O)C[C@@H]1CC[C@@H]1[C@@H]2CC[C@]2(C)[C@@H](O)CC[C@@H]12` [5α-androstan-3α,17β-diol], the beta-oxidation [1] is given as “increase beta-oxidation” and the cholesterol esterification processes [1] is given as “reduce cholesterol esterification processes”.
